These results are taken from patent US20140105837A1, “NOVEL ARYL C-XYLOSIDE COMPOUNDS, AND COSMETIC USE” (L'OREAL, priority 2008, published 2014).

Common to all, as to type: cell-based
Experiment [1] has as its system keratinocytes. The experiment in a line: Sulfated glycosaminoglycan synthesis on keratinocytes (35S-sulfate radioactive label incorporation). The note with it: for % glycosaminoglycan synthesis relative to the control: control = 100; for Mean value (incorporated radioactivity, sulfated GAGs): n=3. As to the method:
(§1) Study of the effect of C-glycoside derivatives on sulfated glycosaminoglycan synthesis on fibroblasts and on keratinocytes:
(§2) The study is carried out by measuring the incorporation of radioactive glucosamine into the matrix neosynthesized by cultures of normal human dermal fibroblasts or by keratinocytes. The incorporation of radioactive glucosamine indicates specific neosynthesis of glycosaminoglycans via an incorporation of the acetylated form of this glucosamine.
The keratinocyte cultures are performed in keratinocyte-SFM medium sold by the company Gibco, in the presence of EGF (Epidermal Growth Factor) (0.25 ng/ml), of pituitary extract (25 μg/ml) and of gentamycin (25 μg/ml).
The fibroblasts and the keratinocytes were cultured in 96-well plates. At confluence, the culture medium was replaced with suitable culture medium containing or not containing (control) the test compound or the reference, and then the cells were incubated for 48 hours. The 35S-sulfate radioactive label was added (40 μCi final concentration) and the cells were incubated for a further 24 hours. […]
(§3) The extracellular matrix glycosaminoglycans were extracted with one volume of chaotropic buffer (50 mM Tris/HCl, 4 M guanidine, 5 mM, EDTA, pH 8.0). The sulfated GAGs were purified by ion exchange chromatography: absorption of the anionic molecules onto Q-Sepharose beads under high-stringency conditions, desorption of the molecules which are not very anionic and molecules which are moderately anionic, with a 6 M urea solution containing […] NaCl, and then washing.
(§4) The radioactivity incorporated into the highly […] molecules that have remained on the support (predominantly GAGs) was measured by liquid scintillation.
(§5) The results are evaluated relative to a control consisting of cells which have not been treated with a compound of formula (I).
A positive control (CaCl2 at 1.4 mM) known to stimulate GAG synthesis is introduced into the test carried out on keratinocytes, as a positive reference.
(§6) The results are expressed as percentage variation in glycosaminoglycan synthesis relative to the control.

The test system of experiment [2] is normal human dermal fibroblasts. The experiment in a line: Sulfated glycosaminoglycan synthesis on fibroblasts (35S-sulfate radioactive label incorporation). The conditions noted are these: for % glycosaminoglycan synthesis relative to the control / Mean value (incorporated radioactivity, sulfated GAGs): fibroblasts; for % glycosaminoglycan synthesis relative to the control: control = 100; for Mean value (incorporated radioactivity, sulfated GAGs): n=3; for Effectiveness for increasing sulfated GAG synthesis (in words): summary of the tests on fibroblasts and keratinocytes. The method, then: as §1, §2
The fibroblast cultures are performed according to conventional cell culture methods, namely in DMEM medium sold by the company Gibco, in the presence of L-glutamine (2 mM), of penicillin (50 IU/ml) and of 10% of fetal calf serum (Gibco).
The fibroblasts and the keratinocytes were cultured in 96-well plates. At confluence, the culture medium was replaced with suitable culture medium containing or not containing (control) the test compound or the reference, and then the cells were incubated for 48 hours. The 35S-sulfate radioactive label was added (40 μCi final concentration) and the cells were incubated for a further 24 hours. All the conditions were carried out 3 times.
as §3, §4, §5
A positive control (TGFβ at 10 ng/ml) known to stimulate GAG synthesis is introduced into the test carried out on fibroblasts, as a positive reference.
as §6

For experiment [3] the test system is unchanged. Described as above. The note with it: other experimental plan, n=2.
The subject of experiment [4] is keratinocytes. Briefly: Sulfated glycosaminoglycan synthesis on keratinocytes (35S-sulfate radioactive label incorporation). The conditions noted are these: other experimental plan, n=2.
Where [5] appears, read: 0.1 mM, other experimental plan.

With `[Ca+2].[Cl-].[Cl-]` [CaCl2, reference compound], in the experiment on keratinocytes [1] (CaCl2 at 1.4 mM), the “% glycosaminoglycan synthesis relative to the control” value is 117% and the “Mean value (incorporated radioactivity, sulfated GAGs)” value (shortened to “Mean value”) is given as 5273 cpm.
For the molecule `COc1cc(CCC(O)CC2OC[C@@H](O)[C@H](O)[C@H]2O)ccc1O` (stereo partly drawn) [Compound 1, 1-(α,β)-D-xyopyranosyl-4-(4-hydroxy-3-methoxyphenyl)butan-2-ol], the “% glycosaminoglycan synthesis relative to the control” value with keratinocytes [1] (0.37 mM) came out at 707%; in the experiment with keratinocytes [1] (1.1 mM), 813%; in experiment [2] (40 μM), 351%; in experiment [2] (120 μM), 657%. The “Mean value” value with keratinocytes [1] (0.37 mM) was 31999 cpm; with keratinocytes [1] (1.1 mM), 36795 cpm; in experiment [2] (40 μM) it was 8130 cpm; in experiment [2] (120 μM), 15318 cpm. For the same molecule, the figures for the “Effectiveness for increasing sulfated GAG synthesis (in words)” value in experiment [2] and in experiment [2] (listed as example 2) were “highly effective” and “very effective”, respectively.
For the molecule `Oc1ccccc1CCC(O)CC1OC[C@@H](O)[C@H](O)[C@H]1O` (stereo partly drawn) [Compound 8, 1-(α,β)-D-xylopyranosyl-4-(2-hydroxyphenyl)butan-2-ol], the “% glycosaminoglycan synthesis relative to the control” value in the experiment on keratinocytes [1] (setting [5]) came out at 316%; in the experiment on keratinocytes [1] (1 mM, other experimental plan) it was 665%; in experiment [2] (setting [5]), 117%; in experiment [2] (1 mM, other experimental plan), 412%. The “Mean value” value is 2938 cpm in experiment [3] (0.1 mM), 10371 cpm in experiment [3] (1 mM), 40552 cpm in the experiment with keratinocytes [4] (0.1 mM) and 85456 cpm in the experiment on keratinocytes [4] (1 mM). Moreover, in experiment [2], the “Effectiveness for increasing sulfated GAG synthesis (in words)” value is recorded as “highly effective”.
For `OC(CCc1ccccc1)CC1OC[C@@H](O)[C@H](O)[C@H]1O` (stereo partly drawn) [Compound 9, 1-(α,β)-D-xylopyranosyl-4-phenylbutan-2-ol], the “% glycosaminoglycan synthesis relative to the control” value in the experiment with keratinocytes [1] (0.1 μM, other experimental plan) is listed as 563%; in the experiment with keratinocytes [1] (1 μM, other experimental plan), 547%; in experiment [2] (setting [5]), 430%; in experiment [2] (1 mM, other experimental plan), 938%. Also, the “Mean value” value in experiment [3] (0.1 mM) was determined as 10838 cpm; in experiment [3] (1 mM) it was 23620 cpm; with keratinocytes [4] (0.1 μM), 24106 cpm; with keratinocytes [4] (1 μM), 99041 cpm. Moreover, the “Effectiveness for increasing sulfated GAG synthesis (in words)” value in experiment [2] is reported as “highly effective”.
Turning to “TGFβ: positive control known to stimulate GAG synthesis, used at 10 ng/ml on fibroblasts [reference compound]”, in experiment [2] (TGFβ at 10 ng/ml), the “% glycosaminoglycan synthesis relative to the control” value was determined as 174% and the “Mean value” value came to 4062 cpm.
